Experimental data as given in US20160129011A1, “BICYCLO 2,3-BENZODIAZEPINES AND SPIROCYCLICALLY SUBSTITUTED 2,3-BENZODIAZEPINES” (BAYER PHARMA AKTIENGESELLSCHAFT, priority 2013, published 2016).

Experiments:
MOLM-13 cells = assay: Cell proliferation assay (alamarBlue), MOLM-13; format: cell-based; details: acute myeloid leukaemia cell line, 96 h incubation
Method in brief: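 MOLM-13 cells in RPMI1640/10% FCS were plated overnight, then exposed to seven compound dilutions (1E-5 to 1E-8 M) for 96 h at 37 °C. Viability was read by alamarBlue fluorescence (ex 530/em 590 nm). Pre-treatment readings were subtracted, and IC50 was calculated against buffer-treated cells.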

MOLP-8 cells = assay: Cell proliferation assay (alamarBlue), MOLP-8; format: cell-based; details: multiple myeloma cell line, 120 h incubation
Experimental: (§1) In accordance with the invention, the ability of the substances to inhibit cell proliferation was determined. Cell viability was determined by means of the alamarBlue® reagent (Invitrogen) in a Victor X3 Multilabel Reader (Perkin Elmer). The excitation wavelength was 530 nm and the emission wavelength […].
The MOLP-8 cells (DSMZ, ACC 569) were sown at a concentration of 4000 cells/well in 100 μl of growth medium (RPMI1640, 20% FCS) on 96-well microtitre plates.
(§2) The MDA-MB-231 cells (DSMZ, ACC 732) were sown at a concentration of 4000 cells/well in 100 μl of growth medium (DMEM/Ham's F12 medium, 10% FCS) on 96-well microtitre plates. After overnight incubation at 37° C., the fluorescence values (CI values) were determined. Then the plates were treated with various substance dilutions (1E-5 M, 3E-6 M, 1E-6 M, 3E-7 M, 1E-7 M, 3E-8 M, 1E-8 M) and incubated at 37° C. for 72 (MV4-11, LOX-IMVI cells), 96 (MOLM-13, B16F10, […] cells), 120 (MOLP-8, KMS-12-PE cells) or 168 (LAPC-4 cells) hours. Subsequently, the fluorescence values were determined (CO values). For the data analysis, the CI values were subtracted from the CO values and the results were compared between cells which had been treated with various dilutions of the substance or only with buffer solution. This was used to calculate the IC50 values (substance concentration required for 50% inhibition of cell proliferation).
(§3) The substances were examined in the cell lines of Table 1 which, in an exemplary manner, represent the stated indications: […]

BRD4 (BD1) = target: T1, BRD4 (BD1) (Homo sapiens, UniProt O60885); assay: Binding assay BRD4/acetylated peptide H4 (TR-FRET protein-protein interaction assay); details: BRD4 (BD1) / acetylated histone H4 peptide
T1 construct: longer constructs also being possible, preferably amino acids 44-168; made in house; host or cells: E. coli
Method in brief: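 His6-tagged BRD4 BD1 (aa 67-152, E. coli-expressed, typically 10 nM) was used with a biotinylated tetra-acetylated H4 peptide, and compounds at 0.1 nM–20 μM in duplicate. After 10 min preincubation, mixtures were incubated 1 h at 22 °C, then ≥3 h at 4 °C. Read-out was the TR-FRET 665/622 nm ratio (Eu-streptavidin to anti-His-XL665); IC50 from a 4-parameter fit.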

B16F10 cells = assay: Cell proliferation assay (alamarBlue), B16F10; format: cell-based; details: melanoma (BRAF wild-type) cell line, 96 h incubation
Experimental: as §1
The B16F10 cells (ATCC, CRL-6475) were sown at a concentration of 300-500 cells/well in 100 μl of growth medium (DMEM with phenol red, 10% FCS) on 96-well microtitre plates.
as §2, §3

MV4-11 cells = assay: Cell proliferation assay (alamarBlue), MV4-11; format: cell-based; details: Homo sapiens, acute myeloid leukaemia cell line, 72 h incubation
Experimental: as §1
The MV4-11 cells (ATCC, CRL 9591) were sown at a concentration of 5000 cells/well in 100 μl of growth medium (RPMI1640, 10% FCS) on 96-well microtitre plates.
as §2, with “proliferation). […]” for “proliferation).”

LOX-IMVI cells = assay: Cell proliferation assay (alamarBlue), LOX IMVI; format: cell-based; details: Homo sapiens, melanoma (BRAF mutated) cell line, 72 h incubation
Experimental: as §1
The LOX-IMVI cells (NCI-60) were sown at a concentration of 1000 cells/well in 100 μl of growth medium (RPMI1640, 10% FCS) on 96-well microtitre plates.
as §2, with “proliferation). […]” for “proliferation).”

MDA-MB-231 cells = assay: Cell proliferation assay (alamarBlue), MDA-MB-231; format: cell-based; details: Homo sapiens, mammary carcinoma cell line, 96 h incubation
Experimental: as §1, §2, §3

LAPC-4 cells = assay: Cell proliferation assay (alamarBlue), LAPC-4; format: cell-based; details: Homo sapiens, LAPC4; prostate cancer cell line, 1 nM methyltrienolone, 168 h incubation
Experimental: as §1
The LAPC-4 cells (ATCC, PTA-1441TM) were sown at a concentration of 4000 cells/well in 100 μl of growth medium (RPMI1640, 2 mM L-glutamine, 10% cFCS) on 96-well microtitre plates. One day later, the LAPC-4 cells were treated with 1 nM methyltrienolone and various substance dilutions.
as §2, with “For the data analysis, the CI values were subtracted from the CO values and the results were compared between cells which had been treated with various dilutions of the substance or only with buffer solution. This was used to calculate the IC50 values (substance concentration required for 50% inhibition of cell proliferation).” left out

KMS-12-PE cells = assay: Cell proliferation assay (alamarBlue), KMS-12-PE; format: cell-based; details: Homo sapiens, multiple myeloma cell line, 120 h incubation
Experimental: as §1
The KMS-12-PE cells (DSMZ, ACC 606) were sown at a concentration of 4000 cells/well in 100 μl of growth medium (RPMI1640, 20% FCS) on 96-well microtitre plates.
as §2, with “proliferation). […]” for “proliferation).”

SMILES | IC50 (MOLM-13 cells; Homo sapiens, MOLM-13) | IC50 (BRD4 (BD1)) | IC50 (B16F10 cells; Mus musculus, B16-F10) | IC50 (MV4-11 cells) | IC50 (MDA-MB-231 cells) | IC50 (MOLM-13 cells) | IC50 (B16F10 cells) | IC50 (MOLP-8 cells; Homo sapiens, MOLP-8) | IC50 (LOX-IMVI cells) | IC50 (LAPC-4 cells) | IC50 (KMS-12-PE cells) | IC50 (MOLP-8 cells)
CNC(=O)N1N=C(c2ccc(N3CC4(CCS4(=O)=O)C3)cc2)c2cc(-n3nc(C)cc3C)ccc2C[C@H]1C [Example 17.1, (4R)-8-(3,5-Dimethyl-1H-pyrazol-1-yl)-1-[4-(1,1-dioxido-1-thia-6-azaspiro[3.3]hept-6-yl)phenyl]-N,4-dimethyl-4,5-dihydro-3H-2,3-benzodiazepine-3-carboxamide] | 6740 nM | 1470 nM | 5590 nM | – | – | – | – | 4320 nM | – | – | – | –
CNC(=O)N1N=C(c2ccc(F)c(N3C[C@@H]4C[C@H]3CN4C)c2)c2cc(OC)c(OC)cc2CC1C (relative stereo) [Example 41, [1S-(1R*,4R*)]-1-[4-fluoro-3-(5-methyl-2,5-diazabicyclo[2.2.1]hept-2-yl)phenyl]-7,8-dimethoxy-4,5-dihydro-N,4-dimethyl-3H-2,3-benzodiazepine-3-carboxamide] | 1140 nM | 430 nM | 1470 nM | – | – | – | – | 690 nM | – | – | – | –
CNC(=O)N1N=C(c2ccc(N3CC4(CN(C(=O)OC(C)(C)C)C4)C3)cc2)c2cc(OC)c(OC)cc2C[C@@H]1C [Example 8.1, tert-butyl 6-{4-[(4S)-7,8-dimethoxy-4-methyl-3-(methylcarbamoyl)-4,5-dihydro-3H-2,3-benzodiazepine-1-yl)phenyl}-2,6-diazaspiro[3.3]heptane-2-carboxylate] | 180 nM | 60 nM | 130 nM | – | – | – | – | 100 nM | – | – | – | –
CNC(=O)N1N=C(c2ccc(N3CC4(CN(C)C4)C3)cc2)c2cc(OC)c(OC)cc2CC1C (racemic) [Example 38, (±)-7,8-Dimethoxy-N,4-dimethyl-1-[4-(6-methyl-2,6-diazaspiro[3.3]hept-2-yl)phenyl]-4,5-dihydro-3H-2,3-benzodiazepine-3-carboxamide] | 170 nM | 100 nM | 400 nM | – | – | – | – | 140 nM | – | – | – | –

The next lines start with results.

IC50 (MOLM-13 cells; Homo sapiens, MOLM-13) | IC50 (BRD4 (BD1)) | IC50 (B16F10 cells; Mus musculus, B16-F10) | IC50 (MV4-11 cells) | IC50 (MDA-MB-231 cells) | IC50 (MOLM-13 cells) | IC50 (B16F10 cells) | SMILES | IC50 (MOLP-8 cells; Homo sapiens, MOLP-8) | IC50 (LOX-IMVI cells) | IC50 (LAPC-4 cells) | IC50 (KMS-12-PE cells) | IC50 (MOLP-8 cells)
150 nM | 40 nM | 70 nM | – | – | – | – | CNC(=O)N1N=C(c2ccc(N3CCC4OCCC4C3)cc2)c2cc(OC)c(OC)cc2CC1C (racemic) [Example 36, (±)-1-[4-(hexahydrofuro[3,2-c]pyridin-5(4H)-yl)phenyl]-7,8-dimethoxy-N,4-dimethyl-4,5-dihydro-3H-2,3-benzodiazepine-3-carboxamide] | 90 nM | – | – | – | –
70 nM | 40 nM | 60 nM | – | – | – | – | CNC(=O)N1N=C(c2ccc(N3CC4(CCS4(=O)=O)C3)cc2)c2cc(OC(F)(F)F)ccc2CC1C (racemic) [Example 18, (±)-1-[4-(1,1-dioxido-1-thia-6-azaspiro[3.3]hept-6-yl)phenyl]-N,4-dimethyl-8-(trifluoromethoxy)-4,5-dihydro-3H-2,3-benzodiazepine-3-carboxamide] | 60 nM | – | – | – | –
70 nM | 20 nM | 40 nM | 40 nM | 80 nM | – | – | CNC(=O)N1N=C(c2ccc(N3CC4(CCS4(=O)=O)C3)cc2)c2cc(OC)c(OC)cc2C[C@@H]1C [Example 3.1, (4S)-1-[4-(1,1-Dioxido-1-thia-6-azaspiro[3.3]hept-6-yl)phenyl]-7,8-dimethoxy-N,4-dimethyl-4,5-dihydro-3H-2,3-benzodiazepine-3-carboxamide] | 40 nM | 280 nM | 20 nM | 50 nM | –
40 nM | 10 nM | 20 nM | 30 nM | 40 nM | – | – | CNC(=O)N1N=C(c2ccc(N3C[C@H]4CC[C@@H](C3)O4)cc2)c2cc(OC)c(OC)cc2C[C@@H]1C [Example 4.2, (4S)-7,8-dimethoxy-N,4-dimethyl-1-[4-(8-oxa-3-azabicyclo[3.2.1]oct-3-yl)phenyl]-4,5-dihydro-3H-2,3-benzodiazepine-3-carboxamide] | 20 nM | 170 nM | 10 nM | 30 nM | –
– | 70 nM | – | – | – | 200 nM | 210 nM | CNC(=O)N1N=C(c2ccc(N3C[C@@H]4C[C@H]3CN4C)cc2)c2cc(OC)c(OC)cc2C[C@H]1C (relative stereo) [Example 40.1, [1S-[1R*,2(S*),4R*]]-7,8-Dimethoxy-N,4-dimethyl-1-[4-(5-methyl-2,5-diazabicyclo[2.2.1]hept-2-yl)phenyl]-4,5-dihydro-3H-2,3-benzodiazepine-3-carboxamide] | – | – | – | – | 100 nM
220 nM | 50 nM | 100 nM | – | – | – | – | CNC(=O)N1N=C(c2ccc(N3CCC4(COC4)C3)cc2)c2cc(OC)c(OC)cc2CC1C (racemic) [Example 29, (±)-7,8-dimethoxy-N,4-dimethyl-1-[4-(2-oxa-6-azaspiro[3.4]oct-6-yl)phenyl]-4,5-dihydro-3H-2,3-benzodiazepine-3-carboxamide] | 90 nM | – | – | – | –
